The record followed here is patent publication US10881698B2, “Diagnosis and treatment for respiratory tract diseases” (THE TRUSTEES OF THE UNIVERSITY OF PENNSYLVANIA, priority 2012, dated 2021).

For series [1], the system named is Methicillin-resistant Staphylococcus aureus (MRSA). As to the kind of experiment: Kill assay with ASL from stimulated sinonasal ALI cultures (CFU plating). Conditions: for Growth of bacteria mixed with ASL from stimulated cultures: 10 mM denatonium, 300 μM absinthin; for Effect of solutions alone on growth: no ASL. In kind it is cell-based.
For series [2], the system named is Pseudomonas aeruginosa. The description is as above. The format is cell-based. To be noted: for Growth of bacteria mixed with ASL from stimulated cultures: 10 mM denatonium, 300 μM absinthin, Pseudomonas aeruginosa; for Effect of solutions alone on growth: no ASL, Pseudomonas.
In a further series the target is T1, AVI-TAS2R38 (Homo sapiens, UniProt P59533, A262V).
T1 construct: first 45 amino acids of rat SSTR-3 (N); host or cells: HEK293 (peakRapid), transient transfection, pcDNA3.1(+)
T1 sequence (P59533 1-333 A262V): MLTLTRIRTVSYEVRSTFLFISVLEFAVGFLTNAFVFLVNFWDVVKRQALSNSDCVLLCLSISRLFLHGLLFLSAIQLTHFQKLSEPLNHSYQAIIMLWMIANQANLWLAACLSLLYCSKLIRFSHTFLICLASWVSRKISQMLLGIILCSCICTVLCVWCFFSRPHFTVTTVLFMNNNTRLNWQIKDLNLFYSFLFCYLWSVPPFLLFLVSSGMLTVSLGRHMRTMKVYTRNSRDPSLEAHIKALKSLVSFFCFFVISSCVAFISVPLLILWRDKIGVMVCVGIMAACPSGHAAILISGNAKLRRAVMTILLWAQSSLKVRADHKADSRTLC
Nature of the series: Fluo-4 calcium mobilization in HEK293 cells expressing hTAS2R38 (AVI) and Gα16gustducin44. Conditions: 1 mM agonist; AVI variant. In kind it is cell-based. For orientation: A change in cytosolic calcium serves as a functional read-out for many receptors and channels.

The next series deals with beta-defensin 2. As to the kind of experiment: Beta-defensin 2 secretion by sinonasal cultures. In kind it is cell-based, human.
A further series relates to nasal epithelial cells. Nature of the series: Fluo-4 calcium signaling with denatonium in nasal epithelial cells (sinonasal ALI cultures). The format is cell-based, human. Conditions: 0.1-20 mM denatonium.
Series [3] deals with T2, T2R38 (Homo sapiens, UniProt P59533, A49P/I296V).
T2 construct: T2R38 is expressed in human upper airway epithelium; endogenous in cells; host or cells: primary human sinonasal epithelial cells, air-liquid interface cultures from surgical patients
T2 sequence (P59533 1-333 A49P/I296V): T1 sequence (P59533 1-333 A262V) with A49P, V262A, I296V
As to the kind of experiment: DAF-FM imaging of NO production in human sinonasal ALI cultures. In kind it is cell-based.

The next series has as its system Kleibsiella pneumoniae. Nature of the series: Bactericidal effect of ASL from treated nasal cultures. The format is cell-based. To be noted: 10 mM denatonium or 300 μM absinthin.
Another series has as its target T3, PAV-TAS2R38 (Homo sapiens, UniProt P59533, A49P/I296V).
T3 construct: first 45 amino acids of rat SSTR-3 (N); host or cells: HEK293 (peakRapid), transient transfection, pcDNA3.1(+)
T3 sequence (P59533 1-333 A49P/I296V): T1 sequence (P59533 1-333 A262V) with A49P, V262A, I296V
As to the kind of experiment: Fluo-4 calcium mobilization in HEK293 cells expressing hTAS2R38 (PAV) and Gα16gustducin44. In kind it is cell-based. To be noted: 1 mM agonist; PAV variant.

In series [4] the target is T2, T2R38. As to the kind of experiment: DAF-2/Texas Red dextran ratio assay of NO secretion into ASL. To be noted: 1 mM PTC, PAV/PAV. In kind it is cell-based. The method, then: (§1) For measurement of NO secretion, a protocol was developed in which a solution of Texas Red Dextran (an NO-insensitive cell-impermeant dye) and DAF-2 (an NO-sensitive cell-impermeant dye) were added in a small volume (10 μl) to the apical surface of the cultures. The ratio of DAF-2/Texas Red fluorescence was recorded using wide-field epifluorescence microscopy at baseline and after incubation at 37° C. for the indicated times. This experiment was validated by addition of DETA-NONOate, an NO donor that releases 2 moles of NO per mole of parent molecule. DETA-NONOate was added on top of ALI cultures in pH 5 buffer to stimulate rapid decomposition. Imaging was performed using a Nikon 20×0.5 NA PlanFluor objective and 100 W mercury arc lamp with filters from Chroma Technologies (Rockingham, Vt.). Green filter contained a 480/40 nm band-pass [bp] excitation filter (reported as max transmission wavelength/filter width at half maximal transmission), a 505 nm dichroic mirror, and a 535/40 nm by emission filter. Red filter set contained a 560/40 nm by excitation filter, 595 dichroic mirror, and 630/60 nm by emission filter.
(§2) We also utilized a fluorescence-based assay to measure NO diffusion into the ASL. The apical surface of cultures was overlaid with a small volume (10 μl) of phosphate-buffered saline with or without 1 mM PTC containing 2 spectrally distinct cell-impermeant dyes, the NO-sensitive 4,5-diaminofluorescence diacetate (DAF-2) and the NO-insensitive Texas Red dextran ([…] MW); a ratiometric measurement was used to eliminate any artifacts due to expansion or contraction of ASL volume. The ratio of DAF-2/Texas Red fluorescence was recorded by fluorescence microscopy after 5, 30 and 60 min incubations at 37° C. […] We utilized this assay to determine if exposure to Pseudomonas and their secretions was sufficient to cause epithelial cells to produce NO with subsequent diffusion into the ASL. Log-phase cultures of PAO1 and PAO-JP2 were resuspended in PBS and placed on the ALI surface in the presence of DAF-2 and Texas Red.

Series [5] addresses T4, T2R38 (Homo sapiens, UniProt P59533, A262V).
T4 construct: T2R38 is expressed in human upper airway epithelium; endogenous in cells; host or cells: primary human sinonasal epithelial cells, air-liquid interface cultures from surgical patients
T4 sequence (P59533 1-333 A262V): T1 sequence (P59533 1-333 A262V)
Described as above. In kind it is cell-based. Conditions: 1 mM PTC, AVI/AVI. The method, then: as §1, §2

In series [6] the test system is acutely dissociated sinonasal ciliated epithelial cells. As to the kind of experiment: Ca2+ and DAF-FM responses in acutely dissociated sinonasal ciliated cells. In kind it is cell-based, human.
The subject of series [7] is T2R38. Nature of the series: Fluo-4 Ca2+ imaging in primary human sinonasal ALI cultures. In kind it is cell-based. Conditions: 1 mM PTC; PAV/AVI cultures.
In series [8] the target is T2, T2R38. Described as above. The format is cell-based. Conditions: 1 mM PTC; PAV/PAV cultures.
Series [9] addresses T4, T2R38. Described as above. In kind it is cell-based. Conditions: 1 mM PTC; AVI/AVI cultures.
Series [10] has as its system T2R38. As to the kind of experiment: NO metabolites in airway surface liquid by chemiluminescence. In kind it is cell-based, human. To be noted: 1 mM PTC; 20 min. The method, then:
(§3) ASL from stimulated and unstimulated cultures (20 μL total volume for each) was collected after 20 min at 37° C. and frozen at −20° C. and protected from light until analysis. NO-metabolites were evaluated by reduction of metabolites with acidified-heated vanadium to nitric oxide and detection of nitric oxide by chemiluminescence on the Sievers 280 nitric oxide analyzer. Samples were injected into a custom made purge container containing 0.05 M Vanadium chloride in 1 N HCl heated to 95° C. The reading in millivolts was compared to a standard curve generated by injecting standard solutions of nitrate. This reductive method reports on the total levels of nitrate, nitrite, N-nitroso and iron-nitrosyl adducts as well as low molecular weight and protein S-nitrosothiol adducts.
(§4) The antibacterial properties of NO help maintain the sterility of the sinonasal airways. […] NO diffusion into the ASL was quantified by measuring NO-derived byproducts in 20 μL of airway surface liquid from cultures stimulated with 1 mM PTC (or PBS alone) for 20 min using reductive chemistries coupled with chemiluminescence detection of nitric oxide (FIG. 20A). ASL levels of NO metabolites (nitrate, nitrite, N-nitroso and iron-nitrosyl adducts as well as low molecular weight and protein S-nitrosothiol adducts) were not different in unstimulated PAV/PAV and AVI/AVI cultures (0.41±0.13 pmol/μL for PAV/PAV and 0.66±0.33 for AVI/AVI; n.s. vs PAV/PAV). However, the increase observed in PTC-stimulated PAV/PAV cultures was >2-fold larger than that observed in AVI/AVI cultures (FIG. 20A). In PTC stimulated cultures, NO metabolites in the ASL over 20 minutes were 4.37 pmol/μL (PAV/PAV; P<0.001 vs unstimulated PAV/PAV) and 1.72 pmol/μL (AVI/AVI; P<0.01 vs stimulated PAV/PAV; n.s. vs unstimulated AVI/AVI).

Series [11] addresses T2, T2R38. Described as above. In kind it is cell-based. To be noted: 1 mM PTC; PAV/PAV. The method, then:
as §3, §4

The target in series [12] is T4, T2R38. The description is as above. In kind it is cell-based. To be noted: 1 mM PTC; AVI/AVI. On the procedure: as §3, §4
The subject of series [13] is Pseudomonas aeruginosa.
The test system of a further series is sinonasal ALI cultures. In kind it is cell-based, human.
Series [14] deals with sinonasal epithelial cells. As to the kind of experiment: DAF-FM NO production with quinine in PAV/AVI heterozygote sinonasal epithelial cells. The format is cell-based, human.
Series [15] relates to T2R38. As to the kind of experiment: DAF-FM imaging of NO production in human sinonasal ALI cultures. The format is cell-based.

Substitutions are numbered along the chain they refer to.

As for `CC[N+](CC)(CC(=O)Nc1c(C)cccc1C)Cc1ccccc1` [denatonium, denatonium benzoate], the “Growth of bacteria mixed with ASL from stimulated cultures” value (shortened to “Growth of bacteria mixed with ASL”) (in series [1]; with Pseudomonas aeruginosa [2]) was 0 CFUs throughout. Besides, the “Effect of solutions alone on growth” value (in [1]; with Pseudomonas aeruginosa [2]) was “had no effect” in each case. The “Peak Fluo-4 fluorescence (ΔF/F)” value came to 3±1% on AVI-TAS2R38 and 1±2% on PAV-TAS2R38. Moreover, the “Beta-defensin 2 secretion” value in the series with beta-defensin 2 is “induced”. In addition, the “Fluo-4 fluorescence on stimulation with denatonium” value with nasal epithelial cells was “increases fluo-4 fluorescence”. The “NO production with non-T2R38 bitter ligands” value at T2R38 [3] (thujone 5 mM, denatonium 10 mM, PAV/PAV cultures) is reported as “did not stimulate NO production”. In addition, the “Bactericidal effect of ASL from treated nasal cultures” value with Kleibsiella pneumoniae is given as “significant bactericidal effects”.
Take `CC1=C[C@H]2[C@H]3[C@H](C(C)=C4[C@H]5OC(=O)[C@@H](C)[C@@H]5CC[C@](C)(O)[C@@H]43)[C@@]13[C@@H]2[C@@](C)(O)CC[C@H]1[C@H](C)C(=O)O[C@@H]13` [absinthin]: in series [1], the “Growth of bacteria mixed with ASL” value came out at 0 CFUs and the “Effect of solutions alone on growth” value is given as “had no effect”. Further, in the series with Pseudomonas aeruginosa [2], the “Growth of bacteria mixed with ASL” value came out at 0 CFUs and the “Effect of solutions alone on growth” value is reported as “had no effect”. For the same molecule, the “Beta-defensin 2 secretion” value in the series with beta-defensin 2 is listed as “induced”. For the same molecule, the “Bactericidal effect of ASL from treated nasal cultures” value in the series on Kleibsiella pneumoniae is reported as “significant bactericidal effects”.
Regarding `NC(=S)Nc1ccccc1` [PTC, phenylthiocarbamide], the “DAF-2/Texas Red Dextran fluorescence ratio after PTC stimulation” value amounted to 0.46±0.10 at T2R38 [4] (5 min); 1.55±0.17 on T2R38 [4] (30 min); 2.52±0.76 on T2R38 [4] (60 min); 0.54±0.1 at T2R38 [5] (5 min); 0.71±0.1 at T2R38 [5] (30 min); 0.90±0.3 at T2R38 [5] (60 min). In series [6], the “Ca2+ responses in acutely dissociated sinonasal ciliated cells” value is “occurred”. Also, the “Fluo-4 fluorescence after 5 min PTC” value in the series with T2R38 [7] worked out at 1.14±0.035; at T2R38 [8], 1.30±0.027; at T2R38 [9], 1.06±0.02. In addition, the “Peak Fluo-4 fluorescence (ΔF/F)” value is on record as −4±1% on AVI-TAS2R38 and 114±4% on PAV-TAS2R38. In addition, the “Increase in NO metabolites, PTC-stimulated PAV/PAV relative to AVI/AVI cultures” value in the series with T2R38 [10] is on record as more than 2 fold. Besides, the “NO metabolites in the ASL over 20 minutes” value on T2R38 [11] worked out at 4.37 pmol/µL; on T2R38 [12], 1.72 pmol/µL.
Regarding `COC(=O)[C@@H](N)CCCNC(=N)N[N+](=O)[O-]` [L-NAME, L-N^G-Nitroarginine methyl ester], the “% green (viable) PAO1” value in the series on Pseudomonas aeruginosa [13] worked out at 90±2%. In the series with sinonasal ALI cultures, the “Effect on CBF increase in response to 6.25% PAO1 supernatant” value was “significantly inhibited” and the “Effect on HSL-stimulated CBF increase” value is given as “blocked”. Moreover, the “Effect on quinine-stimulated NO production” value in series [14] (L-NAME 20 μM) was “inhibited”. Also, the “Effect on NaSCN-activated DAF-FM fluorescence” value in the series on T2R38 [15] is reported as “blocked”. Besides, the “Effect on C4HSL-induced NO production in taster cultures” value on T2R38 [3] is listed as “represses the NO production”.
Turning to `C=C[C@H]1C[N@@]2CC[C@H]1C[C@H]2[C@H](O)c1ccnc2ccc(OC)cc12` [quinine], the “NO production (increase in DAF-FM fluorescence)” value in series [14] (apical application, PAV/AVI heterozygote cells) is listed as “stimulated a robust NO production”.
